Source: patent US7622475B2, “EP2 agonists” (Pfizer Inc, priority 2006, dated 2009)

Legend:
[1] = system: murine astrocyte cultures; details: cited from earlier work
EP2 = EP2 (Homo sapiens, UniProt P43116); design: expressed in transfected cells; host or cells: COS cells; details: COS cells transfected with the human EP2 receptor; read-out: EC50 for the stimulation of cAMP; cited from earlier work
[2] = system: other murine EP receptors or DP, TP, FP or IP receptors; details: cited from earlier work
[3] = target: recombinant murine EP2 receptor (Mus musculus, UniProt Q62053); details: fraction of the affinity of PGE2; cited from earlier work
[4] = system: ocular hypertensive non-human primates; test: IOP change after topical application in ocular hypertensive non-human primates; assay type: in vivo; details: for Tmax: time point of maximum IOP reduction
Procedure: Tables 2 and 3 describe the intraocular pressure (IOP) changes that were seen following topical application of EP2 agonists in ocular hypertensive non-human primates. Typically, compounds in suitable formulations were dosed topically and IOP was measured using tonometry. Changes in IOP between vehicle treatment followed by treatment with EP2 compounds were assessed over time in the dosed hypertensive eye. ΔΔ Emax reflects the difference in IOP from EP2 compound-treated eye over that seen for vehicle-treated eye at the timepoint wherein maximum IOP reduction for compound was seen. The percent ΔΔ Emax was the percentage change in IOP reduction conferred by compound over that for vehicle (set at 100%). Tmax represents the time point at which maximum IOP reduction of compound was observed. […] NS represents not significant. Table 2 compares acids of EP2 compound while Table 3 compares IOP response seen with esters of certain acids. Esters provide better corneal penetration and improved drug exposure in the anterior chamber compared to acids and are therefore dosed at ⅕th the dose for acids […].

newborn piglets = details: brief hypoxia, in the presence of PG synthase inhibitors; cited from earlier work
[5] = system: ocular hypertensive non-human primates; test: IOP change after topical application in ocular hypertensive non-human primates; assay type: in vivo; details: isopropylesters, OHT primates, NT eye
ciliary muscle = details: topical ocular QD for 1 year; treated and contralateral eyes; cited from earlier work

Chain of EP2 (P43116 whole entry): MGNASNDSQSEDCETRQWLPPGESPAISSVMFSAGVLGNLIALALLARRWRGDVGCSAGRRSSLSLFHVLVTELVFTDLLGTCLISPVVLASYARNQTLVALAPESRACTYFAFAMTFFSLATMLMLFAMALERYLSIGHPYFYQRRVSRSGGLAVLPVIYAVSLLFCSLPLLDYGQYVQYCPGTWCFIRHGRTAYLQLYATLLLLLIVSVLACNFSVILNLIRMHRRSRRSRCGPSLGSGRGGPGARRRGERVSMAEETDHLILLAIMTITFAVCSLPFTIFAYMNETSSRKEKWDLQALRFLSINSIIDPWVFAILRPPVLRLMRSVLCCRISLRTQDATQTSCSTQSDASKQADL
Chain of recombinant murine EP2 receptor (Q62053 whole entry): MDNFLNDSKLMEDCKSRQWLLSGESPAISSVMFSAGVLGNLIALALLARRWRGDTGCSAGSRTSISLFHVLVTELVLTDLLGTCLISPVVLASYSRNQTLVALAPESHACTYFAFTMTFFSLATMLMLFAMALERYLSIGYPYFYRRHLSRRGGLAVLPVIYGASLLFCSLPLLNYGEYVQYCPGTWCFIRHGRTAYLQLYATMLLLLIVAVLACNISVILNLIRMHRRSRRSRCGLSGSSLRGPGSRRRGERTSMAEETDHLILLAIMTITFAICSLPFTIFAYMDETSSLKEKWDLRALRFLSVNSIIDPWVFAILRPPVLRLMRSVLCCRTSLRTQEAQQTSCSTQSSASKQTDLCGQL

## CCCCC[C@H](O)/C=C/[C@H]1[C@H](O)CC(=O)[C@@H]1C/C=C\CCCC(=O)O [PGE2, prostaglandin E2]
[1]
  synthesis and secretion of BDNF and NGF: stimulate synthesis and secretion of brain-derived neurotrophic factor (BDNF) and nerve growth factor (NGF)

## CCCC1([C@H](O)C/C=C/[C@H]2[C@H](O)CC(=O)[C@@H]2CCCCCCC(=O)OC)CCC1 (racemic) [Butaprost, (+/−)-15-Deoxy-16S-hydroxy-17-cyclobutyl PGE1]
EP2
  EC50: ~5 µM
[2]
  binding to other prostanoid receptors: does not bind appreciably
[3]
  affinity relative to PGE2: about 1/10
[4]; Primates, topical, acid EP2 agonists, Conc 0.1 %, topical, vs vehicle (set at 100%), read-out: ΔΔEmax (%)
  change in vivo at 0.1 %: -18%
[4]; acid EP2 agonists, Conc 0.1 %, topical, dosed hypertensive eye vs vehicle
  ΔΔEmax (mm Hg): −5.5 mm Hg
[4]; acid EP2 agonists, Conc 0.1 %
  Tmax: 5 h
Newborn piglets
  electrophysiological changes (VEPs and ERGs): restoration of electrophysiological changes

## CC(C)OC(=O)COc1cccc(CN(Cc2ccc(-n3cccn3)cc2)S(=O)(=O)c2cccnc2)c1 [drawing 61]
[4]; isopropylesters, OHT primates, OHT eye, 0.1 mg/ml topical
  ΔΔEmax (mmHg): −14 mmHg
[4]; isopropylesters, OHT primates
  Tmax: 6 h
[5]
  ΔΔEmax (mmHg): −7.5 mmHg

## CCCCCC(O)c1ccc(C2CCC(=O)C2CCCCCCC(=O)O)cc1 (stereo not drawn) [AH-13205]
Ciliary muscle
  number of nerve bundles in ciliary muscle: doubling in the number of nerve bundles in ciliary muscle
